{"source": "patent US20210121542A1", "about": "“COMPOSITION FOR […] OF PROTEIN TH[…] ORAL, SUBLINGUAL AND BUCCAL ROUTE” (Prime Bio, Inc., priority 2019, published 2021)", "tested_on": "trypsin", "type": "in vitro ADME"}
{"substance": "bovine serum albumin [BSA]", "values": [{"measurement": "% Relative Protection (compared with BSA + Trypsin)", "result": 0, "unit": "%"}]}
